Three molecules from US4952689A, “3-(substituted propylidene)-2-azetidinone derivates for blood platelet aggregation” (Taisho Pharmaceutical Co., Ltd., priority 1988, dated 1990) can be followed below.

The test has as its system acute thrombocytopenia. The test can be described thus: Inhibitory effect on acute thrombocytopenia in mice (ADP-induced). It is filed as in vivo, male ICR mice. Particulars: 300 mg/kg by gavage 2 hours prior to ADP (1 mg/kg, tail vein); platelet count at 30 seconds after ADP. The procedure:
Experiment [Inhibitory effect on acute thrombocytopenia in mice]
Ten male ICR mice weighing 20-30 g were used for each group. Under pentobarbital anaesthesia, adenosine diphosphate (ADP) dissolved in physiological saline in a dose of 1 mg/kg was injected into the tail vein and 20 μl of blood was collected from the femoral artery at 30 seconds after injection of ADP. Immediately after blood sampling, platelet counts were measured with an automatic blood cell counter (Sysmex CC-180A). Platelet count of normal group without injection of ADP was measured as well.
Test drugs [Compounds 2 and 3 (the compounds of the present invention) and Compound 1 (the comparative drug) in Table 1] were suspended in 5% gum arabic solution and administered by gavage in a dose of 300 mg/kg 2 hours prior to injection of ADP. As control group, 5% gum arabic solution without test drugs was administered.
Inhibition ratio of acute thrombocytopenia was calculated by the following formula. [formula]
Note: A: Platelet count of the group treated with both test drug and ADP
B: Platelet count of control group with both 5% gum arabic solution and ADP
C: Platelet count of normal group without injection of ADP
For `COc1ccc(N2C(=O)/C(=C/C(C)=NOCCCN3CCN(c4ccccn4)CC3)C2c2ccccc2)cc1` (stereo not drawn) [Compound 3, (E)-1-(4-Methoxyphenyl)-3-[2-[3-{1-[4-(2-pyridyl)piperadinyl]}propoxyimino]-propylidene]-4-phenyl-2-azetidinone], the “Inhibition Ratio” value amounted to 57.61%.

For `COc1ccc(N2C(=O)/C(=C/C(C)=NOCCCN3CCOCC3)C2c2ccccc2)cc1` (stereo not drawn) [Compound 2, (E)-1-(4-Methoxyphenyl)-3-{2-[3-(4-morpholinyl)propoxyimino]propylidene}-4-phenyl-2azetidinone], the “Inhibition Ratio” value came to 54.66%.

`COc1ccc(N2C(=O)/C(=C/C(C)=NOCC(=O)O)C2c2ccccc2)cc1` (stereo not drawn) [Compound 1, (E)-1-(4-Methoxyphenyl)-3-(2-carboxymethoxyiminopropylidene)-4-phenyl-2-azetidinone, reference compound]: the “Inhibition Ratio” value is listed as 12.00%.
